The target in the test is T1, sGC α1/β1 heterodimer (Homo sapiens, UniProt Q02108+Q02153).
T1 construct: expressed in transfected cells; host or cells: CHO-K1 (clone #7, CHO-K1/sGC)
T1 sequence (Q02108 1-690): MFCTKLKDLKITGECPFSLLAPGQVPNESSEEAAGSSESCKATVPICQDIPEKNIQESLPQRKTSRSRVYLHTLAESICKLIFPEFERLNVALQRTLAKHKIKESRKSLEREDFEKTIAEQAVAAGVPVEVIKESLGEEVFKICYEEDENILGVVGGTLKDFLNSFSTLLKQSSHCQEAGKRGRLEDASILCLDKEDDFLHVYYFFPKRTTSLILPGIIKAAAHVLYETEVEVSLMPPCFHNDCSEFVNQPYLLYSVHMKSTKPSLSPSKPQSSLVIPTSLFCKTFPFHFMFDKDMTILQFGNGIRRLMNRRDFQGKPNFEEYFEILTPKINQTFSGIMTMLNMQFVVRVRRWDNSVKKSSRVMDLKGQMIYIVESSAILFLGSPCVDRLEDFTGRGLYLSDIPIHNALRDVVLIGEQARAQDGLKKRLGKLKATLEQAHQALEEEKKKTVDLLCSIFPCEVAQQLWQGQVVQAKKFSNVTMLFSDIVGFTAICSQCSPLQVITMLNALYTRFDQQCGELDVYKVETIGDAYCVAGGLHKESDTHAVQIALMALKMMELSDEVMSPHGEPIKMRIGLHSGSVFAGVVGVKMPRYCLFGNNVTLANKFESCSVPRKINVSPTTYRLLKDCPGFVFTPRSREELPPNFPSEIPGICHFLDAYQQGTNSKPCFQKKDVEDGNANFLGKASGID
T1 sequence (Q02153 1-619): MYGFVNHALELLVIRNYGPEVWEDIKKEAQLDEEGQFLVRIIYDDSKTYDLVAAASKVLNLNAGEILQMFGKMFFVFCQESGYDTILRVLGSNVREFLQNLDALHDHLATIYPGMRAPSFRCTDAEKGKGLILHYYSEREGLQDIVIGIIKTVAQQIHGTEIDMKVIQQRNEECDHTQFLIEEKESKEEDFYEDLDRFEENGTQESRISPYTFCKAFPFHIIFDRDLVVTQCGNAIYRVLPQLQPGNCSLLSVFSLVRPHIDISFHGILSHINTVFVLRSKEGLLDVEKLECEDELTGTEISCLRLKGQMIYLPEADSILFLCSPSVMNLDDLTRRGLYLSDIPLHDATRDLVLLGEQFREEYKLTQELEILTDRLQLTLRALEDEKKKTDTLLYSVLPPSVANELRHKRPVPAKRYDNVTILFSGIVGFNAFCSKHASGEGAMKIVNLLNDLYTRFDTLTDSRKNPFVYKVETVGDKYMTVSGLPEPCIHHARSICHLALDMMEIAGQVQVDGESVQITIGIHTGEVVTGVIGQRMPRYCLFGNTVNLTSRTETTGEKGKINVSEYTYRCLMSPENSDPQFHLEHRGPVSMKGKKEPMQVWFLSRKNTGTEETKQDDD
Briefly: Cell-based sGC functional assay (CASA assay): cGMP generation in CHO-K1/sGC cells, HTRF detection. As to conditions: for Emax: CHO-K1, percent activation relative to standard Compound A in CHO-K1/sGC cells, read-out: % Act.; for pEC50: inflection point (IP) of cGMP generation in CHO-K1/sGC cells, 4P fit, activity expressed as percentage of Compound A. The text has this:
Biological Assay 1: Cell-Based sGC Functional Assay (CASA Assay)
sGC is a heme-containing enzyme that converts GTP to secondary messenger cGMP. Increases in cGMP levels affect several physiological processes including vasorelaxation through multiple downstream pathways. […] Heme-dependent activators (HDAs) preferentially activate sGC containing a ferrous heme group. To determine the effect of sGC activators on enzyme activity, the CASA assay was developed to monitor the generation of cGMP in a cell line that stably expresses the heterodimeric sGC protein.
A CHO-K1 cell line stably expressing the sGC α1/β1 heterodimer was generated using a standard transfection protocol. CHO-K1 cells were transfected with plasmids pIREShyghsGCal and pIRESneo-hsGCβ1 simultaneously using FUGENE reagent. Clones that stably express both subunits were selected with hygromycin and neomycin for 2 weeks. Clone #7 was chosen for the assay and was designated CHO-K1/sGC. CHO-K1/sGC cells were maintained in F-K12 medium containing 10% heat-inactivated Fetal Bovine Serum (FBS), 100 μg/mL penicillin/streptomycin, 0.5 mg/mL hygromycin and 0.25 mg/mL G418. The cells were then cryopreserved in LN2. On the day of the assay, cells thawed and resuspended in EBSS Assay Buffer (Sigma, E3024) supplemented with 5 mM MgCl2, 10 mM HEPES (4-(2-hydroxyethyl)piperazine-1-ethanesulfonic acid) and 0.05% BSA (bovine serum albumin) (EAB) and cell density was then adjusted to 4×10^5/mL with EAR IBMX (3-isobutyl-1-methylxanthin, 0.5 mM) was added to inhibit degradation of cGMP. Compounds were diluted from DMSO stock solutions and added to the assay at a final DMSO concentration of 2.5%. Cells were incubated with compounds in the presence and absence of 1 μM of Diethylenetriamine/nitric oxide adduct (DETA-NO; Sigma, 17018) for 1 hr at 37° C. At the end of the incubation period, the reaction was terminated and the cells were lysed with the detection reagents from Cisbio Kits. The level of intracellular cGMP was determined using an HTRF-based assay kit (CisBio, 62GM2PEC), which detects the displacement of a fluorescence labeled cGMP from its specific antibody. The cGMP produced by test compounds was directly compared to the maximum cGMP production (this value was set to equal 100% activation.) of the published sGC-HDA Compound A:
[drawing 597] (Example 1 in WO 2010/065275, published Jun. 10, 2010). The test compounds' activities were then expressed as a percentage of Compound A, the standard in every experiment. This percent activation was calculated either in the presence or absence of DETA-NO which was then plotted. IP and maximum fold induction was derived using ADA analysis software for 4P fit.
The compounds in the Examples of the instant invention had inflection points (IP) less than or equal to 10 μM and more particularly less than or equal to about 1 μM.
(In general: In TR-FRET formats the signal depends on donor and acceptor labels being close together.)

pEC50: −log10 of the molar value.

The values that follow come from patent publication US9796733B2, “Imidazo-pyrazine derivatives useful as soluble guanylate cyclase activators” (Merck Sharp & Dohme Corp., priority 2014, dated 2017).

A word on the pEC50: it is the EC50 on a negative log10 scale, so that one unit is a factor of ten. Low readings indicate a large EC50, high ones a small EC50.

With `CCCCc1nc(-c2nc(N)c3c(n2)NC(=O)C3(c2ccc(Cl)cc2)C2CCC2)cn2ccnc12` (single isomer, unassigned) [Example 358B, 4-amino-2-(8-butylimidazo[1,2-a]pyrazin-6-yl)-5-(4-chlorophenyl)-5-cyclobutyl-5H-pyrrolo[2,3-d]pyrimidin-6(7H)-one], the Emax came out at 120% and the pEC50 was 7.70.

As to `Nc1nc(-c2cn3ccnc3c(CCC(F)(F)C(F)(F)F)n2)nc2c1C(c1cccnc1)(C1CC1)C(=O)N2` (single isomer, unassigned) [Example 359B, 4-amino-5-cyclopropyl-2-(8-(3,3,4,4,4-pentafluorobutyl)imidazo[1,2-a]pyrazin-6-yl)-5-(pyridin-3-yl)-5H-pyrrolo[2,3-d]pyrimidin-6(7H)-one], the Emax was determined as 108% and the pEC50 was 6.52.

Turning to `CCCCc1nc(-c2nc(N)c3c(n2)NC(=O)C3(c2ccc(F)cc2)C2CCC2)cn2ccnc12` (single isomer, unassigned) [Example 361B, 4-amino-2-(8-butylimidazo[1,2-a]pyrazin-6-yl)5-cyclobutyl-5-(4-fluorophenyl)-5H-pyrrolo[2,3-d]pyrimidin-6(7H)-one], the Emax worked out at 157% and the pEC50 is 7.33.

Turning to `Cc1nc(C2(C3CC3)C(=O)Nc3nc(-c4cn5ccnc5c(CCCC(F)(F)F)n4)nc(N)c32)ccc1F` (single isomer, unassigned) [Example 362B, 4-amino-5-cyclopropyl-5-(5-fluoro-6-methylpyridin-2-yl)-2-(8-(4,4,4-trifluorobutyl)imidazo[1,2-a]pyrazin-6-yl)-5H-pyrrolo[2,3-d]pyrimidin-6(7H)-one], the Emax came to 140% and the pEC50 was 6.42.

Consider `Cc1nc(C2(C3CC3)C(=O)Nc3nc(-c4cn5ccnc5c(CCC(F)(F)C(F)(F)F)n4)nc(N)c32)ccc1F` (single isomer, unassigned) [Example 363B, 4-amino-5-cyclopropyl-5-(5-fluoro-6-methylpyridin-2-yl)-2-(8-(3,3,4,4,4-pentafluorobutyl)imidazo[1,2-a]pyrazin-6-yl)-5H-pyrrolo[2,3-d]pyrimidin-6(7H)-one], for which the Emax is 186% and the negative-log EC50 (pEC50) is 6.61.

With `Cc1cc(Cl)cnc1C1(C2CC2)C(=O)Nc2nc(-c3cn4ccnc4c(CCCC(F)(F)F)n3)nc(N)c21` (single isomer, unassigned) [Example 364A, 4-amino-5-(5-chloro-3-methylpyridin-2-yl)-5-cyclopropyl-2-(8-(4,4,4-trifluorobutyl)imidazo[1,2-a]pyrazin-6-yl)-5H-pyrrolo[2,3-d]pyrimidin-6(7H)-one], the Emax turned out to be 138% and the pEC50 was 6.56.

Take `Cc1cncc(C2(C3CC3)C(=O)Nc3nc(-c4cn5ccnc5c(CCCC(F)(F)F)n4)nc(N)c32)n1` (single isomer, unassigned) [Example 365B, 4-amino-5-cyclopropyl-5-(6-methylpyrazin-2-yl)-2-(8-(4,4,4-trifluorobutyl)imidazo[1,2-a]pyrazin-6-yl)-5H-pyrrolo[2,3-d]pyrimidin-6(7H)-one]: the Emax stood at 108% and the pEC50 was 6.15.

On to `Cc1cncc(C2(C3CC3)C(=O)Nc3nc(-c4cn5ccnc5c(CCC(F)(F)C(F)(F)F)n4)nc(N)c32)n1` (single isomer, unassigned) [Example 366B, 4-amino-5-cyclopropyl-5-(6-methylpyrazin-2-yl)-2-(8-(3,3,4,4,4-pentafluorobutyl)imidazo[1,2-a]pyrazin-6-yl)-5H-pyrrolo[2,3-d]pyrimidin-6(7H)-one], for which the Emax is 122% and the pEC50 is 6.07.

In the case of `CCCCc1nc(-c2nc(N)c3c(n2)NC(=O)C3(c2cc(C(F)(F)F)ccn2)C2CC2)cn2ccnc12` (single isomer, unassigned) [Example 367B, 4-amino-2-(8-butylimidazo[1,2-a]pyrazin-6-yl)-5-cyclopropyl-5-(4-(trifluoromethyl)pyridin-2-yl)-5H-pyrrolo[2,3-d]pyrimidin-6(7H)-one], the Emax amounted to 170% and the pEC50 is 6.81.

In the case of `Nc1nc(-c2cn3ccnc3c(CCCC(F)(F)F)n2)nc2c1C(c1cccc(C(F)(F)F)n1)(C1CC1)C(=O)N2` (single isomer, unassigned) [Example 368B, 4-amino-5-cyclopropyl-2-(8-(4,4,4-trifluorobutyl)imidazo[1,2-a]pyrazin-6-yl)-5-(6-(trifluoromethyl)pyridin-2-yl)-5H-pyrrolo[2,3-d]pyrimidin-6(7H)-one], the Emax came out at 151% and the negative-log EC50 (pEC50) was 6.83.

Regarding `Nc1nc(-c2cn3ccnc3c(CCCC(F)(F)F)n2)nc2c1C(c1ncc(C(F)(F)F)cc1Cl)(C1CC1)C(=O)N2` (single isomer, unassigned) [Example 370B, 4-amino-5-(3-chloro-5-(trifluoromethyl)pyridin-2-yl)-5-cyclopropyl-2-(8-(4,4,4-trifluorobutyl)imidazo[1,2-a]pyrazin-6-yl)-5H-pyrrolo[2,3-d]pyrimidin-6(7H)-one], the Emax is 99% and the pEC50 is 6.58.

As for `Nc1nc(-c2cn3ccnc3c(CCCC(F)(F)F)n2)nc2c1C(c1ncc(Cl)cc1F)(C1CC1)C(=O)N2` (single isomer, unassigned) [Example 371A, 4-amino-5-(5-chloro-3-fluoropyridin-2-yl)-5-cyclopropyl-2-(8-(4,4,4-trifluorobutyl)imidazo[1,2-a]pyrazin-6-yl)-5H-pyrrolo[2,3-d]pyrimidin-6(7H)-one], the Emax was found to be 82% and the pEC50 is 6.71.

As to `Cc1cc(F)cnc1C1(C2CC2)C(=O)Nc2nc(-c3cn4ccnc4c(CCC(F)(F)C(F)(F)F)n3)nc(N)c21` (single isomer, unassigned) [Example 375B, 4-amino-5-cyclopropyl-5-(5-fluoro-3-methylpyridin-2-yl)-2-(8-(3,3,4,4,4-pentafluorobutyl)imidazo[1,2-a]pyrazin-6-yl)-5H-pyrrolo[2,3-d]pyrimidin-6(7H)-one], the Emax worked out at 41% and the negative-log EC50 (pEC50) was 6.03.
